From patent US20080112967A1, “Process for Refining Ganoderma Spore Polysacchoride” (NANJING ZHONGKE GROUP CORP., LTD., priority 2006, published 2008)

Assays:
[1] = test system: mouse transplantation tumor S180; experiment: inhibitory action of No. 2, intravenous injection administration, on mouse transplantation tumor S180; settings: masculine reference, dosage 30 mg/kg, once on alternate days, 4 times
Excerpt: (§1) 1.1 The test medicine: the Ganoderma spore polysaccharide of the present invention (produced by the method of the present invention, it is named No.2.).
(§2) 1.2 Animal: ICR mouse, 18-22 g, half male and half female, the mouses is provided by China drug section university animal laboratory. The number of ertificate of conformity is: SCXK(SU)2002-0011. The feedstuff is diet pellet, it is provided by China drug section university animal laboratory. Breeding condition: air conditioning room, Temperature 18-24° C., Relative humidity: 70%.
(§3) 1.3 Masculine drug: endoxan (CTX), HENGRUI MEDICINE CO LTD JIANG.
3.2.1 administration route: intravenous injection (iv)
3.2.2 administration period: Inoculate S180 entity type by transplantation tumor methodology, after inoculating 24 h, administrate to the mouse and ip administrate, once on alternate days, administrate for 4 times, at the next day when the administration is stopped, kill the mouse.
(§4) 3.2.3 dosage, there are four groups:
(§5) blank reference group (normal saline)
(§6) 3.2.4 experimental method: Take 40 above-mentioned mouses (S180 entity type inoculated by transplantation tumor methodology), after the mouse is inoculated, weigh the mouse, and divide them into 4 groups, there is 10 mouses in every groups, half male and half female, blank reference group and CTX group are negative and masculine reference group. After inoculating 24 h, administrate to the mouse and ip administrate, once on alternate days, administrate for 4 times, at the next day when the administration is stopped, weigh the mouses and kill them, weigh the weight of tumor, statisticaly treat the obtained data t verify.

[2] = test system: mouse transplantation tumor Heps; experiment: inhibitory action of No. 2, intravenous injection administration, on mouse transplantation tumor Heps; settings: masculine reference, dosage 30 mg/kg, once on alternate days, 4 times
Excerpt: as §1, §2, §3
3.1 the inhibitory action of the No. 2 intravenous injection (iv) administration to the mouse transplantation tumor Heps.
3.1.1 administration route: intravenous injection (iv)
3.1.2 administration period: Inoculate Heps entity type by transplantation tumor methodology, after inoculating 24 h, administrate to the mouse and ip administrate, once on alternate days, administrate for 4 times, at the next day when the administration is stopped, kill the mouse.
(§7) 3.1.3 dosage, there are four groups:
as §5
as §6, with “CTX: 20 mg/kg 3.1.4” for “3.2.4”, “(Heps” for “(S180”, “statistically” for “statisticaly”, “(t verify).” for “t verify.”

[3] = test system: mouse transplantation tumor Heps; experiment: inhibitory action of No. 1, oral pour stomach administration, on mouse transplantation tumor Heps; settings: masculine reference, dosage 30 mg/kg, once a day, 7 times
Experimental: (§8) 1.1 The test medicine: the reference Ganoderma spore polysaccharide (it is named No. 1), it is produced by the method disclosed in the CN1483743, the specific steps is: add Ganoderma spore powder into distilled water, the added amount can shape the Ganoderma spore, shake it up, pelletize, dry in the air, use CO2 supercritical extraction method to remove fat, weigh 10 kg Ganoderma spore which is removed fat, add it into the abstraction pot, add 150 Kg water, soak it for 2 h, heat to boil, keep reflux for 4 h, centrifuge the extracting solution, condense the filtrate to 5 Kg, add three times 95% ethanol, lay it 24 h, filter the polysaccharide precipitation, dry the precipitation so as to obtain the Ganoderma spore polysaccharide.
as §2, with “Animal:ICR” for “Animal: ICR”, “certificate” for “ertificate”, “SCXK (SU)2002-0011.” for “SCXK(SU)2002-0011.”
(§9) 1.3 Masculine Drug: endoxan (CTX), HENGRUI MEDICINE CO LTD JIANG. Specification: 200 mg/bottle, Batch Number: 06060121.
3.1.1 administration route: oral pour stomach (ip)
3.1.2 administration period: Inoculate Heps entity type by transplantation tumor methodology, after inoculating 24 h, administrate to the mouse and ip administrate, once a day, administrate for 7 times, at the next day when the administration is stopped, kill the mouse.
as §7
(§10) blank reference group(normal saline)
as §6, with “3.1.4 experimental” for “3.2.4 experimental”, “mouses (Heps” for “mouses (S180”, “once a day,” for “once on alternate days,”, “for 7” for “for 4”, “data (t verify).” for “data t verify.”

[4] = test system: mouse transplantation tumor S180; experiment: inhibitory action of No. 1, oral pour stomach administration, on mouse transplantation tumor S180; settings: masculine reference, dosage 30 mg/kg, once a day, 7 times
Experimental: as §8
as §2, with “Animal:ICR” for “Animal: ICR”, “certificate” for “ertificate”, “SCXK (SU)2002-0011.” for “SCXK(SU)2002-0011.”
as §9
3.2.1 administration route: oral pour stomach […]
3.2.2 administration period: Inoculate S180 entity type by transplantation tumor methodology, after inoculating 24 h, administrate to the mouse and ip administrate, once a day, administrate for 7 times, at the next day when the administration is stopped, kill the mouse.
as §4, §10
as §6, with “once a day,” for “once on alternate days,”, “for 7” for “for 4”

O=P1(N(CCCl)CCCl)NCCCO1 (stereo not shown) [CTX, endoxan]
The rate of inhibiting tumor (%) [1]: 65.81%
Weight(g) After anministration ([1]; X ± SD, n = 10): 24.3 ± 1.68 g
Weight(g) Before anministration ([1]; X ± SD, n = 10): 20.1 ± 0.94 g
the weight of tumor ([1]; X ± SD, n = 10): 0.51 ± 0.18 g
The rate of inhibiting tumor (%) [2]: 64.60%
Weight(g) After anministration ([2]; X ± SD, n = 10): 24.3 ± 2.41 g
Weight(g) Before anministration ([2]; X ± SD, n = 10): 20.1 ± 1.30 g
the weight of tumor ([2]; X ± SD, n = 10): 0.43 ± 0.15 g
The rate of inhibiting tumor (%) [3]: 64.60%
Weight(g) After anministration ([3]; X ± SD, n = 10): 24.3 ± 2.41 g
Weight(g) Before anministration ([3]; X ± SD, n = 10): 20.1 ± 1.30 g
the weight of tumor ([3]; X ± SD, n = 10): 0.43 ± 0.15 g
The rate of inhibiting tumor (%) [4]: 65.81%
Weight(g) After anministration ([4]; X ± SD, n = 10): 24.3 ± 1.68 g
Weight(g) Before anministration ([4]; X ± SD, n = 10): 20.1 ± 0.94 g
the weight of tumor ([4]; X ± SD, n = 10): 0.51 ± 0.18 g
